Experiments:
[1] = system: MC38 mouse colon cancer cells; test: Prophylactic CASIN treatment, syngeneic MC38 tumor model in C57BL/6 mice; assay type: in vivo
Protocol: FIG. 4. Prophylactic CASIN causes anti-tumor immunity. C57BL/6 mice were injected (i.p.) with vehicle or 30 mg/kg body weight of CASIN twice a day for one week and then 40 mg/kg body weight of CASIN once a day until the end of the experiment. One day after the first CASIN treatment, the mice were injected (s.c.) with MC38 (8×10^5). Tumor growth was monitored (A). Upon euthanasia, tumors were dissected and the expression of IFN-γ^+, IL-4^+ and/or IL-17^+ within CD4^+Foxp3^+ (B), CD4^+Foxp3^− (C), and CD8^+ (D) cells was analyzed by flow cytometry. n=7. Error bars indicate SD. **p<0.01; *p<0.05. In FIGS. 4(A)-(D), data for vehicle administration is the top line (furthest from the x-axis) in FIG. 4A and left side of each data representation in FIGS. 4(B)-(D); and data for CASIN administration is the bottom line (closest to the x-axis) in FIG. 4(A) and right side of each data representation in FIGS. 4(B)-(D).
(§1) The Cdc42 conditional knockout mice and CASIN were developed in CCHMC by Dr. Yi Zheng lab (Yang L, Wang L, Zheng Y. Gene targeting of Cdc42 and Cdc42GAP affirms the critical involvement of Cdc42 in filopodia induction, directed migration, and proliferation in primary mouse embryonic fibroblasts. Mol Biol Cell. 2006 November; 17(11):4675-85) (Liu W, Du W, Shang X, Wang L, Evelyn C, Florian M C, A Ryan M, Rayes A, Zhao X, Setchell K, Meller J, Guo F, Nassar N, Geiger H, Pang Q, Zheng Y. Rational identification of a Cdc42 inhibitor presents a new regimen for long-term hematopoietic stem cell mobilization. Leukemia. 2019 March; 33(3):749-761). In the examples below, the effects of Cdc42 deletion and CASIN on T-cell immunity against tumor growth of colorectal cancer cells and/or pancreatic cancer cells was evaluated. […]
C57BL/6 mice were injected (i.p.) with vehicle or 30 mg/kg body weight of CASIN twice a day for one week and then 40 mg/kg body weight of CASIN once a day until the end of the experiment. […] Tumor growth was monitored. […]

[2] = system: MC38 mouse colon cancer cells; test: Therapeutic CASIN treatment upon tumor onset, MC38 tumor model in C57BL/6 mice, with or without Anti-CD4/CD8 T-cell depletion; assay type: in vivo
Protocol: FIG. 5. Therapeutic CASIN treatment causes anti-tumor T-cell immunity. C57BL/6 mice were inoculated (s.c.) with MC38 (8×10^5) at day 1 and injected (i.p.) with Anti-CD4/CD8 neutralizing antibodies (5 mg/kg body weight for each antibody) or isotype control antibody once every 4 days starting at day 1. Starting from day 10 when tumor onset was observed, the mice were treated with vehicle or CASIN as described for FIG. 4 above. Tumor volume was monitored (A). At day 14, depletion of T-cells in peripheral blood from the mice treated with Anti-CD4/CD8 neutralizing antibodies was confirmed by flow cytometry (data not shown). Upon euthanasia, tumors were dissected from isotype control antibody-treated mice. The expression of IFN-γ^+ and IL-17^+ in CD4^+Foxp3^+ cells was analyzed by flow cytometry (B). CD3^+ T-cells were visualized by immunohistochemistry using anti-CD3 antibody (C). The expression of IFN-γ^+ and/or IL-17^+ in CD4^+Foxp3^− (D) and CD8^+ cells (E) was analyzed by flow cytometry. n=5. Error bars indicate SD. **p<0.01; *p<0.05. […]
as §1, with “Leukemia. 2019 March; 33(3):749-761).” left out
C57BL/6 mice were injected (s.c.) with MC38 (8×10^5) at day 1 and injected (i.p.) with Anti-CD4/CD8 neutralizing antibodies (5 mg/kg body weight for each antibody) or isotype control antibody once every 4 days starting at day 1. […] Tumor volume was monitored. […]

[3] = system: Splenic CD4+ YFP+ Tregs from Cdc42+/- mice; test: Stability of Cdc42+/- Tregs cultured with or without acetazolamide (flow cytometry, IFN-γ+ cells); assay type: cell-based, mouse; details: Splenic CD4+ YFP+ Tregs from Cdc42+/- mice cultured with AZA; FIG. 3E
Protocol: (§2) FIG. 3. […] (A, B) Treg-specific heterozygous deletion of Cdc42 upregulates CAI and alkalizes extracellular pH of Tregs. Splenic CD4^+ YFP^+ Tregs were flow-sorted from WT and Cdc42^+/− mice. CAI expression was detected by Q-PCR (A). Another aliquot of the cells were cultured with Anti-CD3/CD28 and IL-2 for 36 hrs. pH of the culture medium (pHe) was measured by a pH meter. (C, D) Extracellular alkalization destabilizes Tregs. Splenic CD4^+ YFP^+ Tregs from WT mice were cultured as described in B, with regular medium of pH 7.4 or medium of pH 7.56 (C). Alternatively, the cells were cultured with conditional medium (CM) from WT Treg culture or from Cdc42^+/− Treg culture (D). Percentages of IFN-γ^+ cells within Tregs (left) and non-Tregs (right) were analyzed by flow cytometry. (E) Inhibition of CAI by acetazolamide (AZA) rescues instability of Cdc42^+/− Tregs. […] Percentages of IFN-γ^+ cells within Tregs (left) and non-Tregs (right) were analyzed by flow cytometry. […] Three days after starting AZA injection, the mice were inoculated (s.c.) with MC38 (8×10^5) and tumor volume was recorded. n=4-7. […]
(§3) Cdc42^fl/+Foxp3^YFP-Cre and Cdc42^+/+Foxp3^YFP-Cre mice were inoculated (s.c.) with MC38 mouse colon cancer cells (8×10^5) or KPC mouse pancreatic cancer cells (8×10^5). Tumor volume was monitored. […] Quantitative real-time RT-PCR (Q-PCR) confirmed the upregulation of CAI in Cdc42^+/− Tregs (FIG. 3A). […]

[4] = system: MC38 mouse colon cancer cells; test: MC38 tumor growth in Cdc42+/- mice treated with AZA; assay type: in vivo; details: AZA 40 mg/kg i.p. once a day, started three days before MC38 (8×10^5) s.c.; vs Cdc42+/- + vehicle; FIG. 3F
Protocol: as §2, §3

SMILES | tumor growth ([1]; CASIN i.p. 30 mg/kg twice a day for one week then 40 mg/kg once a day, started one day before MC38 s.c., vs vehicle, FIG. 4A) | Treg stability (IFN-γ+, IL-4+, IL-17+ within tumor CD4+Foxp3+ cells) ([1]; prophylactic CASIN, dissected tumors, flow cytometry, FIG. 4B) | effector T cells (tumor CD4+Foxp3- and CD8+ cells) ([1]; prophylactic CASIN, dissected tumors, flow cytometry, FIG. 4C, D) | tumor growth (tumor volume) ([2]; CASIN i.p. 30 mg/kg twice a day for one week then 40 mg/kg once a day from day 10 (tumor onset), isotype control antibody, FIG. 5A) | Treg stability (IFN-γ+ and IL-17+ in tumor CD4+Foxp3+ cells) ([2]; therapeutic CASIN, dissected tumors, flow cytometry, FIG. 5B) | effector T-cells (CD3+ T-cells, IFN-γ-producing CD4+Foxp3- and CD8+ cells) in tumors ([2]; therapeutic CASIN, immunohistochemistry and flow cytometry, FIG. 5C-E) | instability of Cdc42+/- Tregs (percentages of IFN-γ+ cells within Tregs) [3] | tumor growth (tumor volume) in Cdc42+/- mice [4]
OCCNC1CCCc2c1[nH]c1ccc(-c3ccccc3)cc21 (centres unmarked) [CASIN] | suppressing tumor growth | destabilizing Tregs | increasing effector T cells | inhibited tumor growth | Treg instability | increased effector T-cells | – | –
CC(=O)Nc1nnc(S(N)(=O)=O)s1 [acetazolamide] | – | – | – | – | – | – | rescued the instability | restores tumor growth

— patent US20220288020A1, “METHOD OF TREATING NEOPLASTIC DISEASES WITH A CDC42-SPECIFIC INHIBITOR” (Children's Hospital Medical Center, priority 2019, published 2022)
